This is an account of results in ChEMBL document CHEMBL4425178, “A convenient synthesis and screening of benzosuberone bearing 1,2,3-triazoles against Mycobacterium tuberculosis” (2016).

Converted amounts (≈) assume the structure as drawn.

This assay has as its system Mycobacterium tuberculosis. The experiment in a line: Antimycobacterial activity against Mycobacterium tuberculosis H37Rv ATCC 27294 after 28 days by agar dilution assay. The class given is functional. Conditions: H37Rv ATCC 27294, 672 h. For orientation: Agar dilution tests growth on a series of plates holding different concentrations.
Broadly, the MIC is the lowest concentration that inhibits growth of the organism. Low values mean inhibition by little substance, high ones a need for much substance. In the case of `COc1ccc2cc(-c3cn(C4CCCCc5ccccc54)nn3)ccc2c1` (stereo not drawn), the MIC was above 25 µg/mL.
As for `c1cncc(-c2cn(C3CCCCc4ccccc43)nn2)c1` (stereo not drawn), the figure is 12.5 µg/mL (≈ 43 µM).
As for `Cc1ccc(-c2cn(C3CCCCc4ccccc43)nn2)cc1` (stereo not drawn), the figure is above 25 µg/mL.
With `c1ccc2c(c1)CCCCC2n1cc(-c2ccsc2)nn1` (stereo not drawn) the figure was above 25 µg/mL.
As to `c1ccc(-c2cn(C3CCCCc4ccccc43)nn2)nc1` (stereo not drawn), the MIC was found to be 12.5 µg/mL (≈ 43 µM).
Consider `COc1cccc(-c2cn(C3CCCCc4ccccc43)nn2)c1` (stereo not drawn), for which it took 3.12 µg/mL (≈ 9.78 µM) to inhibit growth (MIC).
As for `c1cc(-c2cn(C3CCCCc4ccccc43)nn2)cc(-c2cn(C3CCCCc4ccccc43)nn2)c1` (stereo not drawn), the figure is 6.25 µg/mL (≈ 12.5 µM); as for `c1ccc2c(c1)CCCCC2n1cc(-c2cc3ccccc3c3ccccc23)nn1` (stereo not drawn), above 25 µg/mL.
As for `CCCCCCc1cn(C2CCCCc3ccccc32)nn1` (stereo not drawn), the figure is 6.25 µg/mL (≈ 21 µM).
With `FC(F)(F)Oc1ccc(-c2cn(C3CCCCc4ccccc43)nn2)cc1` (stereo not drawn) the figure was above 25 µg/mL; with `c1ccc(-c2cn(C3CCCCc4ccccc43)nn2)cc1` (stereo not drawn), above 25 µg/mL; with `CCCc1ccc(-c2cn(C3CCCCc4ccccc43)nn2)cc1` (stereo not drawn), above 25 µg/mL.
With `CCc1ccc(-c2cn(C3CCCCc4ccccc43)nn2)cc1` (stereo not drawn), the MIC is above 25 µg/mL.
`CC(C)(C)c1ccc(-c2cn(C3CCCCc4ccccc43)nn2)cc1` (stereo not drawn) showed an MIC of 6.25 µg/mL (≈ 18.1 µM).
As for `CCCCCc1ccc(-c2cn(C3CCCCc4ccccc43)nn2)cc1` (stereo not drawn), the figure is above 25 µg/mL; as for `CC[C@@H](CO)NCCN[C@@H](CC)CO` [ETHAMBUTOL], 3.13 µg/mL (≈ 15.3 µM).
The molecule `NNC(=O)c1ccncc1` [ISONIAZID] registered an MIC of 0.1 µg/mL (≈ 0.729 µM).
As for `CO[C@H]1/C=C/O[C@@]2(C)Oc3c(C)c(O)c4c(O)c(c(/C=N/N5CCN(C)CC5)c(O)c4c3C2=O)NC(=O)/C(C)=C\C=C\[C@H](C)[C@H](O)[C@@H](C)[C@@H](O)[C@@H](C)[C@H](OC(C)=O)[C@@H]1C` [RIFAMPIN], the figure is 0.2 µg/mL (≈ 0.243 µM).
